Here are results for five compounds from patent publication US9067977B2, “Peptides derivatized with A-B-C-D- and their therapeutical use” (Novo Nordisk A/S, priority 2007, dated 2015).

Starred links: 1 amine or outer side, 2 acyl side, 3 side chain; linkers in the order of their positions; H or OH if unused. Non-standard residues stand in square brackets, D forms with d. Residues, ends and D or L forms follow the SMILES beside them. Groups on a side chain read outwards from the residue. *: point of attachment. X1 = O=C(CCCCCCCCCCCCCCCc1nnn[nH]1)NS(=O)(=O)CCCC(=O)*; γGlu = O=C(O)[C@H](CCC(=O)[*:2])N[*:1]; 12Ado = NCCCCCCCCCCCC(=O)O; AEEA = NCCOCCOCC(=O)O; Aib = CC(C)(N)C(=O)O

One may read the EC50 as the concentration at which the effect is half-maximal.

Chain of human serum albumin (HSA) (P02768 25-609): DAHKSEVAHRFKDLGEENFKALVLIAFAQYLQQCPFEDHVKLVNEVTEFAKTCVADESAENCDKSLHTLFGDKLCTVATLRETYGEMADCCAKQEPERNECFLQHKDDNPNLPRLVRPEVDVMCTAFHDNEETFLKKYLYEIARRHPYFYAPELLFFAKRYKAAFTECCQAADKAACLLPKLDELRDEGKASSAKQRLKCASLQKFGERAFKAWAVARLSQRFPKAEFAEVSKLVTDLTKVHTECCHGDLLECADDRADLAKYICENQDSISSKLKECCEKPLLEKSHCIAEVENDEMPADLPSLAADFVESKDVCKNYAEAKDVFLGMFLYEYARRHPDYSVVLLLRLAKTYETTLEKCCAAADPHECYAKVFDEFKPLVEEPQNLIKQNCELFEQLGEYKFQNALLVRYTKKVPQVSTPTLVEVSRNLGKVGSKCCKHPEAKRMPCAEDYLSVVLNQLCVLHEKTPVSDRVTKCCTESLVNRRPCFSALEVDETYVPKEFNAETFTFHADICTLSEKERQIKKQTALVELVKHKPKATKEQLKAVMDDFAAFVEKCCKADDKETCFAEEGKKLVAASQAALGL

The assay addresses human serum albumin (HSA) (Homo sapiens, UniProt P02768). As to the kind of experiment: Albumin binding affinity, competition scintillation proximity assay. On the technique in general: SPA uses beads or plates that emit light when radiolabelled molecules are held near them.
Procedure: Streptavidin-SPA beads (GE Healthcare RPNQ0009) were incubated with biotinylated HSA for 5 hours. The beads were washed with buffer to remove unbound HSA. […] After 20 hours of gentle rocking at room temperature the plates were centrifuged and counted on a TopCounter.
In turn, `CC[C@H](C)[C@H](NC(=O)[C@H](Cc1ccccc1)NC(=O)[C@H](CCC(=O)O)NC(=O)[C@H](CCCCNC(=O)COCCOCCNC(=O)CC[C@H](NC(=O)CC[C@H](NC(=O)CCCCCCCCCCCNC(=O)CCCS(=O)(=O)NC(=O)CCCCCCCCCCCCCCCc1nnn[nH]1)C(=O)O)C(=O)O)NC(=O)[C@H](C)NC(=O)[C@H](C)NC(=O)[C@H](CCC(N)=O)NC(=O)CNC(=O)[C@H](CCC(=O)O)NC(=O)[C@H](CC(C)C)NC(=O)[C@H](Cc1ccc(O)cc1)NC(=O)[C@H](CO)NC(=O)[C@H](CO)NC(=O)[C@@H](NC(=O)[C@H](CC(=O)O)NC(=O)[C@H](CO)NC(=O)[C@@H](NC(=O)[C@H](Cc1ccccc1)NC(=O)[C@@H](NC(=O)CNC(=O)[C@H](CCC(=O)O)NC(=O)C(C)(C)NC(=O)[C@@H](N)Cc1c[nH]cn1)[C@@H](C)O)[C@@H](C)O)C(C)C)C(=O)N[C@@H](C)C(=O)N[C@@H](Cc1c[nH]c2ccccc12)C(=O)N[C@@H](CC(C)C)C(=O)N[C@H](C(=O)N[C@@H](CCCNC(=N)N)C(=O)NCC(=O)N[C@@H](CCCNC(=N)N)C(N)=O)C(C)C` [Example 44, N-epsilon26-[2-(2-{2-[(S)-4-Carboxy-4-((S)-4-carboxy-4-{12-[4-(16-(1H-tetrazol-5-yl)hexadecanoylsulfamoyl)butyrylamino]dodecanoylamino}butyrylamino)butyrylamino]ethoxy}ethoxy)acetyl][Aib8,Arg34]GLP-1-(7-36)amide] came in with an EC50 of 1 to 100 nM.
The result for `CC[C@H](C)[C@H](NC(=O)[C@H](Cc1ccccc1)NC(=O)[C@H](CCC(=O)O)NC(=O)[C@H](CCCCNC(=O)COCCOCCNC(=O)COCCOCCNC(=O)COCCOCCNC(=O)COCCOCCNC(=O)COCCOCCNC(=O)COCCOCCNC(=O)CC[C@H](NC(=O)CC[C@H](NC(=O)CCCCCCCCCCCNC(=O)CCCS(=O)(=O)NC(=O)CCCCCCCCCCCCCCCc1nnn[nH]1)C(=O)O)C(=O)O)NC(=O)[C@H](C)NC(=O)[C@H](C)NC(=O)[C@H](CCC(N)=O)NC(=O)CNC(=O)[C@H](CCC(=O)O)NC(=O)[C@H](CC(C)C)NC(=O)[C@H](Cc1ccc(O)cc1)NC(=O)[C@H](CO)NC(=O)[C@H](CO)NC(=O)[C@@H](NC(=O)[C@H](CC(=O)O)NC(=O)[C@H](CO)NC(=O)[C@@H](NC(=O)[C@H](Cc1ccccc1)NC(=O)[C@@H](NC(=O)CNC(=O)[C@H](CCC(=O)O)NC(=O)C(C)(C)NC(=O)[C@@H](N)Cc1c[nH]cn1)[C@@H](C)O)[C@@H](C)O)C(C)C)C(=O)N[C@@H](C)C(=O)N[C@@H](Cc1c[nH]c2ccccc12)C(=O)N[C@@H](CC(C)C)C(=O)N[C@H](C(=O)N[C@@H](CCCNC(=N)N)C(=O)NCC(=O)N[C@@H](CCCNC(=N)N)C(N)=O)C(C)C` [Example 45, N-epsilon26-[2-(2-{2-[2-(2-{2-[2-(2-{2-[2-(2-{2-[2-(2-{2-[2-(2-{2-[(S)-4-Carboxy-4-((S)-4-carboxy-4-{12-[4-(16-(1H-tetrazol-5-yl)hexadecanoylsulfamoyl)butyrylamino]dodecanoylamino}butyrylamino)butyrylamino]ethoxy}ethoxy)acetylamino]ethoxy}ethoxy)acetylamino]ethoxy}ethoxy)acetylamino]ethoxy}ethoxy)acetylamino]ethoxy}ethoxy)acetylamino]ethoxy}ethoxy)acetyl][Aib8,Lys26,Arg34]GLP-1-(7-36)amide] reads 100 to 150 nM; that for `CC[C@H](C)[C@H](NC(=O)[C@H](Cc1ccccc1)NC(=O)[C@H](CCC(=O)O)NC(=O)[C@H](CCCNC(=N)N)NC(=O)[C@H](C)NC(=O)[C@H](C)NC(=O)[C@H](CCC(N)=O)NC(=O)[C@H](CCC(=O)O)NC(=O)[C@H](CCC(=O)O)NC(=O)[C@H](CC(C)C)NC(=O)[C@H](Cc1ccc(O)cc1)NC(=O)[C@H](CO)NC(=O)[C@H](CO)NC(=O)[C@@H](NC(=O)[C@H](CC(=O)O)NC(=O)[C@H](CO)NC(=O)[C@@H](NC(=O)[C@H](Cc1ccccc1)NC(=O)[C@@H](NC(=O)CNC(=O)[C@H](CCC(=O)O)NC(=O)C(C)(C)NC(=O)[C@@H](N)Cc1c[nH]cn1)[C@@H](C)O)[C@@H](C)O)C(C)C)C(=O)N[C@@H](C)C(=O)N[C@@H](Cc1c[nH]c2ccccc12)C(=O)N[C@@H](CC(C)C)C(=O)N[C@H](C(=O)N[C@@H](CCCNC(=N)N)C(=O)NCC(=O)N[C@@H](CCCNC(=N)N)C(=O)NCC(=O)N[C@@H](CCCCNC(=O)COCCOCCNC(=O)CC[C@H](NC(=O)CC[C@H](NC(=O)CCCCCCCCCCCNC(=O)CCCS(=O)(=O)NC(=O)CCCCCCCCCCCCCCCc1nnn[nH]1)C(=O)O)C(=O)O)C(N)=O)C(C)C` [Example 46, [Aib8,Glu22,Arg26,Arg34]GLP-1-(7-37)Lys[2-(2-{2-[(S)-4-Carboxy-4-((S)-4-carboxy-4-{12-[4-(16-(1H-tetrazol-5-yl)hexadecanoylsulfamoyl)butyrylamino]dodecanoylamino}-butyrylamino)butyrylamino]ethoxy}ethoxy)acetyl]amide] (H-H[Aib]EGTFTSDVSSYLEEQAAREFIAWLVRGRGK([AEEA-γGlu-γGlu-12Ado-X1])-NH2), 1 to 100 nM.
The result for `CC[C@H](C)[C@H](NC(=O)[C@H](Cc1ccccc1)NC(=O)[C@H](CCC(=O)O)NC(=O)[C@H](CCCNC(=N)N)NC(=O)[C@H](C)NC(=O)[C@H](C)NC(=O)[C@H](CCC(N)=O)NC(=O)[C@H](CCC(=O)O)NC(=O)[C@H](CCC(=O)O)NC(=O)[C@H](CC(C)C)NC(=O)[C@H](Cc1ccc(O)cc1)NC(=O)[C@H](CO)NC(=O)[C@H](CO)NC(=O)[C@@H](NC(=O)[C@H](CC(=O)O)NC(=O)[C@H](CO)NC(=O)[C@@H](NC(=O)[C@H](Cc1ccccc1)NC(=O)[C@@H](NC(=O)CNC(=O)[C@H](CCC(=O)O)NC(=O)C(C)(C)NC(=O)[C@@H](N)Cc1c[nH]cn1)[C@@H](C)O)[C@@H](C)O)C(C)C)C(=O)N[C@@H](C)C(=O)N[C@@H](Cc1c[nH]c2ccccc12)C(=O)N[C@@H](CC(C)C)C(=O)N[C@H](C(=O)N[C@@H](CCCNC(=N)N)C(=O)NCC(=O)N[C@@H](CCCNC(=N)N)C(=O)N[C@@H](CCCCNC(=O)COCCOCCNC(=O)CC[C@H](NC(=O)CC[C@H](NC(=O)CCCCCCCCCCCNC(=O)CCCS(=O)(=O)NC(=O)CCCCCCCCCCCCCCCc1nnn[nH]1)C(=O)O)C(=O)O)C(N)=O)C(C)C` [Example 48, N-epsilon37-[2-(2-{2-[(S)-4-Carboxy-4-((S)-4-carboxy-4-{12-[4-(16-(1H-tetrazol-5-yl)hexadecanoylsulfamoyl)butyrylamino]dodecanoylamino}butyrylamino)butyrylamino]ethoxy}ethoxy)acetyl][Aib8,Glu22,Arg26,Arg34,Lys37]GLP-1-(7-37)amide] reads 800 to 2000 nM; that for `CC[C@H](C)[C@H](NC(=O)[C@H](Cc1ccccc1)NC(=O)[C@H](CCC(=O)O)NC(=O)[C@H](CCCNC(=N)N)NC(=O)[C@H](C)NC(=O)[C@H](C)NC(=O)[C@H](CCC(N)=O)NC(=O)CNC(=O)[C@H](CCC(=O)O)NC(=O)[C@H](CC(C)C)NC(=O)[C@H](Cc1ccc(O)cc1)NC(=O)[C@H](CO)NC(=O)[C@H](CO)NC(=O)[C@@H](NC(=O)[C@H](CC(=O)O)NC(=O)[C@H](CO)NC(=O)[C@@H](NC(=O)[C@H](Cc1ccccc1)NC(=O)[C@@H](NC(=O)CNC(=O)[C@H](CCC(=O)O)NC(=O)[C@H](C)NC(=O)CCc1c[nH]cn1)[C@@H](C)O)[C@@H](C)O)C(C)C)C(=O)N[C@@H](C)C(=O)N[C@@H](Cc1c[nH]c2ccccc12)C(=O)N[C@@H](CC(C)C)C(=O)N[C@H](C(=O)N[C@@H](CCCNC(=N)N)C(=O)NCC(=O)N[C@@H](CCCNC(=N)N)C(=O)N[C@@H](CCCCNC(=O)COCCOCCNC(=O)CC[C@H](NC(=O)CC[C@H](NC(=O)CCCCCCCCCCCNC(=O)CCCS(=O)(=O)NC(=O)CCCCCCCCCCCCCCCc1nnn[nH]1)C(=O)O)C(=O)O)C(N)=O)C(C)C` [Example 50], 1 to 100 nM.
